According to the supplement of paper PMC5579334:

How the values were obtained:
HS-PSS [1] = assay: relative IC50 (inflection point of fitted dose-response curve, CellTox-Green cytotoxicity, 72 h; top asymptote may be below 50%); higher = less potent
Summary of the method: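 MPNST cell lines and primary human Schwann cells were grown for 72 h at 37 °C in 384-well plates containing five 10-fold compound dilutions. CellTox-Green, added before seeding at a final 1:1000 dilution, gave fluorescence from DNA released by disrupted cells, and signals were scaled to vehicle and positive-control wells. Curves were fitted with a four-parameter logistic model. Drug sensitivity score and relative IC50 come from these fits, with IC50 censored at the top concentration.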

HS-PSS [2] = assay: relative IC50 (inflection point of fitted dose-response curve, CellTiter-Glo viability, 72 h; top asymptote may be below 50% inhibition); higher = less potent
Summary of the method: (§1)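 For this screen, 384-well plates were preprinted with each compound at five concentrations in 10-fold steps and seeded with MPNST cell lines or primary human Schwann cells at 750–1000 cells per well. Incubation lasted 72 h at 37 °C, 5% CO2, and CellTiter-Glo ATP luminescence, scaled between vehicle and positive-control wells and averaged over duplicates where available, served as viability. Logistic fits with four parameters were applied. Relative IC50 (censored at the top concentration) and drug sensitivity score derive from these fits, and percent inhibition is at the top concentration.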

HS-Sch-2 = assay: as above
Summary of the method: as §1

YST-1 = assay: as above
Summary of the method: as §1

Row | SMILES | relative IC50 (HS-PSS [1]) [µM] | relative IC50 (HS-PSS [2]) [µM] | relative IC50 (HS-Sch-2) [µM] | relative IC50 (YST-1) [µM]
1 | c1cn2cc(-c3ccc4cn[nH]c4c3)nc(Nc3ccc(N4CCOCC4)cc3)c2n1 [Entospletinib] | > 5 | > 5 | > 5 | 
2 | CCNc1nc(Nc2cc(F)c(C(=O)N3CCOCC3)cc2OC)ncc1C(F)(F)F [GNE-7915] | > 1 | > 1 |  | > 1
3 | O=C(O)c1ccc(O)c2ncccc12 [IOX-1] | > 100 | > 100 |  | 36.6
4 | CCC(C)n1ncn(-c2ccc(N3CCN(c4ccc(OCC5COC(Cn6cncn6)(c6ccc(Cl)cc6Cl)O5)cc4)CC3)cc2)c1=O (stereo not given) [Itraconazole] | > 5 | 0.904 |  | 1.54
5 | Cc1cnc(-c2ccccc2C(C)C)nc1NCc1ccc(-n2ccnn2)cc1 [ML323] | > 10 | 1.67 | 1.46 | 
6 | CNC(=O)[C@@H](NC(=O)[C@H](CC(C)C)[C@H](O)C(=O)NO)C(C)(C)C [Marimastat] | > 10 | > 10 |  | > 10
7 | OC(CC1c2ccccc2-c2cncn21)C1CCCCC1 (stereo not given) [NLG919] | > 10 | > 10 | > 10 | 
8 | COc1ccc(COc2cc3oc(=O)c4cc(C(C)O)ccc4c3cc2OC)cc1 (stereo not given) [Palomid-529] | > 10 | > 10 | > 10 | 
9 | Nc1nc2[nH]cc(CCc3ccc(C(=O)N[C@@H](CCC(=O)O)C(=O)O)cc3)c2c(=O)[nH]1 [Pemetrexed] | > 10 | > 10 | 0.0641 | 
10 | C=CC(=O)N1CCC(Oc2cc3c(Nc4ccc(Cl)c(Cl)c4F)ncnc3cc2OC)CC1 [Poziotinib] | > 1 | > 1 | > 1 | 
11 | Cc1cc(C)c(/C=C2\C(=O)Nc3ccccc32)[nH]1 [Semaxanib] | 2.28 | > 10 | > 10 | 
12 | Cc1c(C(=O)Nc2ccc(N3C[C@@H](C)O[C@@H](C)C3)nc2)cccc1-c1ccc(OC(F)(F)F)cc1 [Sonidegib] | > 10 | 0.76 |  | > 10
13 | N#Cc1c(Oc2ccc(F)c(NC(=O)Cc3cccc(C(F)(F)F)c3)c2)ccc2nc(NC(=O)C3CC3)sc12 [TAK-632] | > 10 | 3.98 | 3.86 | 
14 | NC(=O)Nc1sc(-c2ccc(F)cc2)cc1C(N)=O [TPCA-1] | > 25 | 3.98 |  | 4.33
15 | O[C@H]1CC[C@H](Nc2ncc3nc(Nc4c(F)cc(F)cc4F)n([C@H]4CCOC4)c3n2)CC1 [Tanzisertib] | > 10 | > 10 | > 10 | 
16 | Cc1nc(-c2cn3c(n2)-c2ccc(-c4cnn(C(C)(C)C(N)=O)c4)cc2OCC3)n(C(C)C)n1 [Taselisib] | > 1 | 0.425 |  | 0.0249
17 | CNC(=O)c1cc(COc2nnc(Nc3ccc(Cl)cc3)c3ccoc23)ccn1 [Telatinib] | > 10 | > 10 | > 10 | 
18 | Cn1ncc(Cl)c1-c1cc(C(=O)N[C@H](CN)Cc2ccc(F)c(F)c2)oc1Cl [Uprosertib] | > 10 | > 10 | > 10 | 
19 | O=C(O)CC1CC(c2ccccc2)=NO1 (stereo not given) [VGX-1027] | > 10 | > 10 |  | > 10
20 | CC1(C)CCC(CN2CCN(c3ccc(C(=O)NS(=O)(=O)c4ccc(NCC5CCOCC5)c([N+](=O)[O-])c4)c(Oc4cnc5[nH]ccc5c4)c3)CC2)=C(c2ccc(Cl)cc2)C1 [Venetoclax] | > 1 | > 1 | > 1 | 
